In US4151300A, “Acetohydroxamic acids” (Laboratoire L. Lafon, priority 1976, dated 1979):

Assays:
mice [1] = assay: toxicity (isolated mice, intraperitoneal); format: in vivo
Description: (§1) The following text summarises a part of the results of the tests which were carried out with the products according to the invention, these products (unless otherwise stated) being administered intraperitoneally, in suspension in a gum solution (gum arabic), in a volume of 20 ml/kg in the case of mice and of 5 ml/kg in the case of rats.

mice [2] = assay: inter-group aggressiveness (number of fights); format: in vivo
Description: as §1
After three weeks' residence in each of the halves of a cage divided by an opaque partition, the mice receive CRL 40,373 thirty minutes before being brought together by withdrawing the partition.
After 18 days' residence on either side of a partition separating their cage in the middle, groups of 3 mice receive CRL 40,385 and are brought together half an hour later by withdrawing the partition, and the number of fights which take place in the course of 15 minutes is noted.

mice [3] = assay: motility reduced by hypoxia treatment (motor recovery); format: in vivo; details: for motor recovery after hypoxia/anoxia by pressure reduction: mice, i.p.
central nervous system [4] = assay: psychopharmacological study / behaviour; format: in vivo, mice; details: high dose (256 mg/kg)
mice [5] = assay: interaction with oxotremorine (temperature, trembling, peripheral cholinergic symptoms); format: in vivo; details: mice, i.p.
mice [6] = assay: spontaneous motility (actimeter); format: in vivo; details: for spontaneous motility: i.p.
Description: as §1
Thirty minutes after having been given CRL 40,373, the mice (6 per dose, 12 comparison animals) are placed in an actimeter, where their motility is recorded for half an hour.
Thirty minutes after having been given CRL 40,385, the mice are placed in actimeters where their motility is recorded for half an hour.

mice [7] = assay: motility reduced by habituation to a cage (residual motility); format: in vivo; details: i.p.
Description: as §1
Mice which have remained for 18 hours in the actimeters are given CRL 40,373. They are immediately replaced in their cages and, after a period of half an hour, their motility is recorded for 30 minutes (6 animals per dose, 12 comparison animals).
After remaining for 18 hours in the actimeters, the mice receive CRL 40,385. Immediately afterwards they are replaced in their cage and half an hour afterwards the recording of the motility starts and is continued for 30 minutes.

mice [8] = assay: interaction with reserpine (hypothermia, ptosis); format: in vivo; details: i.p.; for reserpine-induced hypothermia: 512 mg/kg
central nervous system [9] = details: prior art; cited from earlier work
rats [10] = assay: interaction with amphetamine (stereotypies in rats); format: in vivo; details: i.p.
Description: as §1
30 minutes after the administration of CRL 40,373, amphetamine is injected intraperitoneally at a dose of 2 mg/kg.
Thirty minutes after the administration of CRL 40,385 the rats are given an intraperitoneal injection of 2 mg/kg of amphetamine (6 animals per dose).

rats [11] = assay: interaction with apomorphine (stereotype behaviour in rats); format: in vivo; details: rats, i.p.
Description: as §1
Batches of six rats are each given a subcutaneous injection of apomorphine (0.5 mg/kg) 30 minutes after the administration of CRL 40,373.
Batches of 6 rats are given a subcutaneous injection of 0.5 mg/kg of apomorphine 30 minutes after the administration of CRL 40,385.

For O=C(CN1C(=O)NC(c2ccc(Cl)cc2)(c2ccc(Cl)cc2)C1=O)NO [CRL 40,468, 3-(5,5-di-p-chlorophenyl-hydantoinyl)-acetohydroxamic acid], the mortality (mice [1]; mouse, in vivo) was “found dead 24 hours after the injection”, the mortality (mice [1]; mouse, in vivo, ip, 512 mg/kg) was “no mortality is observed” and the symptoms / behaviour (mice [1]; mouse, in vivo, ip, 512 mg/kg) was “the symptoms are comparable”. The aggressiveness (mice [2]; mice, i.p., large/high dose) was “reduces the number of fights”.

For COc1cc(NC(=O)CC(=O)NO)cc(OC)c1OC [CRL 40,509, 3,4,5-Trimethoxyphenyl-carbamoyl-acetohydroxamic acid], the anti-anoxia effect (mice [3]; 64 and 128 mg/kg) was “an effect of the anti-anoxia type”, the sedation (central nervous system [4]) was “sedation” and the anti-aggressive effect (mice [2]; very low doses (8 and 16 mg/kg)) was “an effect of the anti-aggressive type”.

With O=C(C[S+]([O-])Cc1cccc2ccccc12)NO (stereo not drawn) [CRL 40,475, α-Naphthylmethylene-sulphinyl-acetohydroxamic acid] the “LD-O (maximum non-lethal dose)” value (mice [1]; mice, i.p.) was “greater than 1,024 mg/kg”.

For CCC(C(=O)NO)C(=O)N(c1ccccc1)c1ccccc1 (centres unmarked) [CRL 40,439, 2-(N,N-Diphenylcarbamoyl)-butyrohydroxamic acid], the “LD-O (maximum non-lethal dose)” value (mice [1]; mice, i.p.) was “greater than 1,024 mg/kg”, the symptoms / behaviour (mice [1]; mouse, in vivo, ip, 128 mg/kg) was “none of these symptoms is observed” and the oxotremorine-induced trembling (mice [5]) was “moderately reduces the intensity of the trembling movements due to oxotremorine”. For the same compound, the “temperature (oxotremorine-induced hypothermia)” value (“temperature” for short) (mice [5]; 512 mg/kg) was “increases, at a dose of 512 mg/kg, the hypothermia-inducing effect of reserpine and of oxotremorine”, the “motor recovery after hypoxia/anoxia by pressure reduction” value (mice [3]) was “does not improve the motor recovery” and the spontaneous motility (mice [6]; mice, 512 mg/kg) was “very great reduction in the spontaneous motility”. For the same compound, the inter-group aggressiveness (mice [2]; mice, i.p.) was “moderately reduces the inter-group aggressiveness in mice”, the “motility reduced by habituation to the cage” value (from here on “motility reduced”) (mice [7]; 128 mg/kg) was “causes a resumption of the motor activity in animals habituated to their cage” and the reserpine-induced ptosis (mice [8]) was “does not affect reserpine-induced ptosis”. The reserpine-induced hypothermia (mice [8]) was “increases, at a dose of 512 mg/kg, the hypothermia-inducing effect of reserpine”.

For O=C(C[S+]([O-])C(c1ccccc1)c1ccccc1)NO (stereo not drawn) [β-benzhydrylsulphinyl-acetohydroxamic acid], the usefulness in therapy (central nervous system [9]) is given as “of interest in the treatment of the central nervous system”.

In the case of O=C(Cc1nc2ccccc2n1-c1ccccc1)NO [CRL 40,490, 2-(1-Phenyl-benzimidazolyl)-acetohydroxamic acid], the “LD-O (maximum non-lethal dose)” value (mice [1]; mice, i.p.) is reported as “greater than 1,024 mg/kg”.

In the case of O=C(CC[S+]([O-])C(c1ccccc1)c1ccccc1)NO (centres unmarked) [3-benzhydrylsulphinyl-propionohydroxamic acid], the usefulness in therapy (central nervous system [9]) is listed as “of interest in the treatment of the central nervous system”.

For O=C(CNC(=O)C(c1ccccc1)c1ccccc1)NO [CRL 40,400, α-(Benzhydrylcarboxamido)-acetohydroxamic acid], the mortality (mice [1]; isolated mice, i.p., 128, 256, 512 and 1,024 mg/kg) was “does not cause any mortality whatsoever”, the “stereotypies induced by oxotremorine” value (mice [5]) was “does not modify the stereotypies” and the motility (mice [6]; mice) was “acts on the motility of mice”. For the same compound, the amphetamine-induced stereotypies (rats [10]; rats) was “does not modify the stereotypies induced in rats by apomorphine and amphetamine”, the “stereotypies induced by reserpine” value (mice [8]) was “does not modify the stereotypies” and the apomorphine-induced stereotypies (rats [11]) was “does not modify the stereotypies induced in rats by apomorphine”.

For O=C(CC[S+]([O-])c1ccc(F)cc1)NO (centres unmarked) [3-(p-fluorophenylsulphinyl)-propionohydroxamic acid], the usefulness in therapy (central nervous system [9]) is listed as “of interest in the treatment of the central nervous system”.

For O=C(CC(=O)Nc1ccc(Cl)cc1)NO [CRL 40,464, N-(4-Chlorophenyl)-carbamoyl-acetohydroxamic acid], the “LD-O (maximum non-lethal dose)” value (mice [1]; mice, i.p.) was “greater than 1,024 mg/kg”, the oxotremorine-induced trembling (mice [5]) was “moderately reduces the intensity of the trembling movements” and the “temperature” value (mice [5]) was “aggravates the hypothermia due to oxotremorine”. For the same compound, the spontaneous motility (mice [6]) was “reduces the spontaneous motility in mice”, the amphetamine-induced stereotypies (rats [10]; 256 mg/kg) was “reduces the intensity of amphetamine-induced stereotypies” and the “motility reduced” value (mice [7]; 128 mg/kg) was “causes a resumption of the motor activity in animals habituated to their cage”.

In the case of O=C(CCC[S+]([O-])c1ccccc1)NO (centres unmarked) [4-phenylsulphinylbutyrohydroxamic acid], the usefulness in therapy (central nervous system [9]) is listed as “of interest in the treatment of the central nervous system”.

For CCC1(c2ccccc2)NC(=O)N(CC(=O)NO)C1=O (centres unmarked) [CRL 40,450, 3-(5-Ethyl-5-phenyl-hydantoinyl)-acetohydroxamic acid], the “LD-O (maximum non-lethal dose)” value (mice [1]; mice, i.p.) was “greater than 1,024 mg/kg”, the “temperature” value (mice [5]; 512 mg/kg) was “aggravates the hypothermia induced by reserpine and by oxotremorine” and the oxotremorine-induced trembling (mice [5]; high dose (512 mg/kg)) was “reduces the intensity of the trembling movements due to oxotremorine”. The spontaneous motility (mice [6]; mice, 512 mg/kg) was “reduction in the spontaneous motility of mice”, the inter-group aggressiveness (mice [2]; mice, i.p., 512 and 256 mg/kg) was “reduces the inter-group aggressiveness in mice” and the reserpine-induced hypothermia (mice [8]) was “aggravates the hypothermia induced by reserpine”.

With O=C(CNC(=O)Nc1ccccc1)NO [CRL 40,513, 5-Phenylureidoacetohydroxamic acid] the “LD-O (maximum non-lethal dose)” value (mice [1]; mouse, in vivo, ip) was “greater than 1,024 mg/kg”, the symptoms / behaviour (mice [1]; mouse, in vivo, ip) was “sedation and hypothermia” and the “motor recovery after hypoxia/anoxia by pressure reduction” value (mice [3]) was “improvement in the motor recovery of mice”. For the same compound, the inter-group aggressiveness (mice [2]; mice, i.p.) was “anti-aggressive effect”.

For O=C(CCC[S+]([O-])C(c1ccccc1)c1ccccc1)NO (centres unmarked) [4-benzhydrylsulphinyl-butyrohydroxamic acid], the usefulness in therapy (central nervous system [9]) is listed as “of interest in the treatment of the central nervous system”.

For O=C(CCC[S+]([O-])c1ccc(F)cc1)NO (centres unmarked) [4-(p-fluorophenylsulphinyl)-butyrohydroxamic acid], the usefulness in therapy (central nervous system [9]) is listed as “of interest in the treatment of the central nervous system”.

In the case of O=C(CC(O)COc1cccc2ccccc12)NO (stereo not drawn) [4-α-naphthyloxy-3-hydroxybutyrohydroxamic acid], the usefulness in therapy (central nervous system [9]) is listed as “inactive in therapy”.

For CC(C(=O)NO)N1C(=O)NC(c2ccccc2)(c2ccccc2)C1=O (centres unmarked) [CRL 40,447, 2-[3-(5,5-Diphenylhydantoinyl)]-propionohydroxamic acid], the “LD-O (maximum non-lethal dose)” value (mice [1]; mouse, in vivo, ip) was “greater than 1,024 mg/kg” and the spontaneous motility (mice [6]; mice, 512 mg/kg) was “reduces the spontaneous motility of mice”.

For O=C(CC(=O)N(C1CCCCC1)C1CCCCC1)NO [CRL 40,446, N,N-(Dicyclohexyl)-carbamoylacetohydroxamic acid], the mortality (mice [1]; mouse, in vivo) was “does not cause any mortality whatsoever”, the “motor recovery after hypoxia/anoxia by pressure reduction” value (mice [3]) was “does not cause any resumption in the motor activity of mice” and the spontaneous motility (mice [6]; mice, 128 and 512 mg/kg) was “reduces the spontaneous motility in mice”. The inter-group aggressiveness (mice [2]; mice, i.p.) was “reduces, to a moderate degree, inter-group aggressiveness in mice”, the “motility reduced” value (mice [7]) was “does not cause any resumption in the motor activity of mice” and the reserpine-induced ptosis (mice [8]) was “ptosis induced by reserpine is not affected”. The reserpine-induced hypothermia (mice [8]) was “partially antagonises hypothermia induced by reserpine”.

In the case of O=C(C[S+]([O-])Cc1ccc(Cl)cc1)NO (stereo not drawn) [CRL 40,411, α-(Chlorobenzylsulphinyl)-acetohydroxamic acid], the “LD-O (maximum non-lethal dose)” value (mice [1]; mice, i.p.) is reported as “greater than 1,024 mg/kg”.

For O=C(CCC[S+]([O-])c1ccc(Cl)cc1)NO (centres unmarked) [4-(p-chlorophenylsulphinyl)-butyrohydroxamic acid], the usefulness in therapy (central nervous system [9]) is listed as “of interest in the treatment of the central nervous system”.

In the case of O=C(CC(=O)Nc1ccc(Cl)c(Cl)c1)NO [CRL 40,491, 3,4-Dichlorophenylcarbamoylacetohydroxamic acid], the “LD-O (maximum non-lethal dose)” value (mice [1]; mice, i.p.) is reported as “greater than 1,024 mg/kg”, the mortality (mice [1]; mice, i.p., 1,024 mg/kg, 24 hours after administration) is reported as “no mortality 24 hours after administration” and the spontaneous motility (mice [6]; mice, 512 mg/kg) is reported as “reduction in the spontaneous motility of mice”. For the same compound, the amphetamine-induced stereotypies (rats [10]; 256 mg/kg) was “reduces the intensity of amphetamine-induced stereotypies”, the inter-group aggressiveness (mice [2]; mice, i.p., 256 mg/kg) was “reduces the inter-group aggressiveness of mice” and the “motility reduced” value (mice [7]; 256 mg/kg) was “moderate resumption of the activity of mice habituated to their cage”.
